Measurements taken from ChEMBL document CHEMBL3351591, “Synthetic (+)-terrein suppresses interleukin-6/soluble interleukin-6 receptor induced-secretion of vascular endothelial growth factor in human gingival fibroblasts” (Bioorg Med Chem, 2014).
Calls of active or inactive are those of the source. No cut-off for these calls is given here.

Key:
HGF [1] = assay: Inhibition of IL-6/soluble IL-6 receptor signaling-induced VEGF secretion in HGF cells pre-incubated for 30 mins before IL-6/soluble IL-6 receptor stimulation for 24 hrs by ELISA method; assay type: cell-based; details: Homo sapiens
HGF [2] = assay: Inhibition of IL-6/soluble IL-6 receptor signaling-induced ERK1/2 phosphorylation in HGF cells pre-incubated at 10 to 20 uM for before IL-6/soluble IL-6 receptor stimulation for 5 mins by Western blotting method; assay type: cell-based; details: Homo sapiens
HGF [3] = assay: Inhibition of IL-6/soluble IL-6 receptor signaling-induced STAT3 phosphorylation in HGF cells pre-incubated at 10 to 20 uM for before IL-6/soluble IL-6 receptor stimulation for 5 mins by Western blotting method; assay type: cell-based; details: Homo sapiens
HGF [4] = assay: Inhibition of IL-6/soluble IL-6 receptor signaling-induced JNK1/2 phosphorylation in HGF cells pre-incubated at 10 to 20 uM for before IL-6/soluble IL-6 receptor stimulation for 5 mins by Western blotting method; assay type: cell-based; details: Homo sapiens
[5] = Cytotoxicity against HGF cells assessed as reduction in cell proliferation at >50 uM incubated for 24 hrs by MTT assay; assay type: cell-based; details: human
[6] = Cytotoxicity against HGF cells assessed as cell proliferation at <10 uM incubated for 24 hrs by MTT assay; assay type: cell-based; details: human
HGF [7] = assay: Inhibition of endogenous VEGF secretion in HGF cells at 0.01 to 10 uM by ELISA method; assay type: functional, cell-based; details: Homo sapiens

**Q.** Which inhibition (HGF [1]) does the source give for `C/C=C/C1=CC(=O)[C@H](O)[C@H]1O` here?
**A.** Dose-dependent effect

**Q.** What about the inhibition (HGF [2]) of the same compound?
**A.** Active

**Q.** And the inhibition (HGF [3])?
**A.** Active

**Q.** And the inhibition (HGF [4])?
**A.** Active

**Q.** And the Activity [5]?
**A.** Toxic

**Q.** What about the Activity [6] of the same compound?
**A.** Non-toxic

**Q.** And the inhibition (HGF [7])?
**A.** inactive
